These results are taken from ChEMBL document CHEMBL4715878 (J Med Chem, 2020).

The IC50 is the concentration that inhibits the measured activity by half. Broadly, the inhibition is the change of the read-out against control, counted positive when it falls. The term GI50 denotes the concentration giving 50% growth inhibition. What is called microsomal CLint is the capacity of the preparation to metabolise the compound, expressed as a volume cleared per time. Low values mean slow turnover, high ones rapid turnover. A word on the share remaining: it is the share of the starting amount still present when the sample was taken. Read a low share remaining as more turnover. As usually defined, the half-life is the time in which the quantity being followed falls by half. A higher half-life goes with slow decline. As a reminder, the CLint scaled is a measure of how fast metabolising enzymes remove a compound, apart from limits set by blood flow.

Activity calls are given as the source filed them. The rule behind the calls is not given here. Bounds are passed on as bounds.

Data set [1] concerns BT-474. As to the kind of experiment: Induction of apoptosis in human BT474 cells assessed as increase in early apoptotic cells incubated for 72 hrs by Annexin V-FITC/PI staining based flow cytometry analysis. Particulars: dose 0.1-5 µM. It is filed as functional, cell-based.
The test system of data set [2] is MCF7. As to the kind of experiment: Antiproliferative activity against human MCF7 cells assessed as reduction in cell viability incubated for 72 hrs by WST8 assay. It is filed as functional, cell-based. Particulars: MCF7, 72 h. A general note: Tetrazolium assays rely on reduction of a dye to a coloured formazan, in cell work by metabolically active cells.
In data set [3] the test system is AU565. Put plainly: Antiproliferative activity against human AU565 cells assessed as reduction in cell viability incubated for 72 hrs by WST8 assay. It is filed as functional, cell-based. The settings on record: AU565, 72 h.
Data set [4] concerns MDA-MB-231. As to the kind of experiment: Antiproliferative activity against human MDA-MB-231 cells assessed as reduction in cell viability incubated for 72 hrs by WST8 assay. It is filed as functional, cell-based. Particulars: MDA-MB-231, 72 h.
In data set [5] the test system is BT-474. Put plainly: Induction of apoptosis in human BT474 cells assessed as increase in early apoptotic cells at 0.5 to 5 uM incubated for 72 hrs by Annexin V-FITC/PI staining based flow cytometry analysis relative to control. It is filed as functional. Particulars: dose 0.5-5 µM. (In general: A flow cytometer gives signals particle by particle.)
A short description of data set [6]: Selectivity ratio of IC50 for antiproliferative activity against human AU565 cells to IC50 for antiproliferative activity against human BT474 cells. It is filed as functional.
Data set [7] concerns MCF7. As to the kind of experiment: Potency index, ratio of lapatinib IC50 to test compound IC50 for antiproliferative activity against human MCF7 cells. It is filed as functional.
Data set [8] deals with BT-474. As to the kind of experiment: Induction of apoptosis in human BT474 cells assessed as increase in late apoptotic cells at 0.5 to 5 uM incubated for 72 hrs by Annexin V-FITC/PI staining based flow cytometry analysis relative to control. It is filed as functional. The settings on record: dose 0.5-5 µM.
Data set [9] concerns BT-474. Put plainly: Antiproliferative activity against human BT474 cells assessed as reduction in cell viability incubated for 72 hrs by WST8 assay. It is filed as functional, cell-based. Particulars: BT-474, 72 h.
Data set [10] has as its system BT-474. As to the kind of experiment: Antitumor activity against human BT474 cells xenografted in athymic nude mouse assessed as reduction in metastasis of cells at 50 mg/kg, po administered via oral gavage for 5 times per week for 55 days measured post-last dose. It is filed as functional, organism-based. Particulars: time 55.0 day. A general note: A xenograft is tissue or cells of one species grown in another, often human tumour cells in immunodeficient mice.

The subject of data set [11] is MDA-MB-231. As to the kind of experiment: Induction of apoptosis in human MDA-MB-231 cells assessed as accumulation in early apoptotic cells at 5 uM incubated for 72 hrs by Annexin V-FITC/PI staining based flow cytometry analysis. It is filed as functional, cell-based.
In data set [12] the target is T1, Receptor tyrosine-protein kinase erbB-2 (Homo sapiens, UniProt P04626). Put plainly: Inhibition of wild-type HER2 (unknown origin) at 100 nM in presence of substrate incubated for 30 mins by ADP-Glo assay relative to control.
T1 sequence (P04626 whole entry): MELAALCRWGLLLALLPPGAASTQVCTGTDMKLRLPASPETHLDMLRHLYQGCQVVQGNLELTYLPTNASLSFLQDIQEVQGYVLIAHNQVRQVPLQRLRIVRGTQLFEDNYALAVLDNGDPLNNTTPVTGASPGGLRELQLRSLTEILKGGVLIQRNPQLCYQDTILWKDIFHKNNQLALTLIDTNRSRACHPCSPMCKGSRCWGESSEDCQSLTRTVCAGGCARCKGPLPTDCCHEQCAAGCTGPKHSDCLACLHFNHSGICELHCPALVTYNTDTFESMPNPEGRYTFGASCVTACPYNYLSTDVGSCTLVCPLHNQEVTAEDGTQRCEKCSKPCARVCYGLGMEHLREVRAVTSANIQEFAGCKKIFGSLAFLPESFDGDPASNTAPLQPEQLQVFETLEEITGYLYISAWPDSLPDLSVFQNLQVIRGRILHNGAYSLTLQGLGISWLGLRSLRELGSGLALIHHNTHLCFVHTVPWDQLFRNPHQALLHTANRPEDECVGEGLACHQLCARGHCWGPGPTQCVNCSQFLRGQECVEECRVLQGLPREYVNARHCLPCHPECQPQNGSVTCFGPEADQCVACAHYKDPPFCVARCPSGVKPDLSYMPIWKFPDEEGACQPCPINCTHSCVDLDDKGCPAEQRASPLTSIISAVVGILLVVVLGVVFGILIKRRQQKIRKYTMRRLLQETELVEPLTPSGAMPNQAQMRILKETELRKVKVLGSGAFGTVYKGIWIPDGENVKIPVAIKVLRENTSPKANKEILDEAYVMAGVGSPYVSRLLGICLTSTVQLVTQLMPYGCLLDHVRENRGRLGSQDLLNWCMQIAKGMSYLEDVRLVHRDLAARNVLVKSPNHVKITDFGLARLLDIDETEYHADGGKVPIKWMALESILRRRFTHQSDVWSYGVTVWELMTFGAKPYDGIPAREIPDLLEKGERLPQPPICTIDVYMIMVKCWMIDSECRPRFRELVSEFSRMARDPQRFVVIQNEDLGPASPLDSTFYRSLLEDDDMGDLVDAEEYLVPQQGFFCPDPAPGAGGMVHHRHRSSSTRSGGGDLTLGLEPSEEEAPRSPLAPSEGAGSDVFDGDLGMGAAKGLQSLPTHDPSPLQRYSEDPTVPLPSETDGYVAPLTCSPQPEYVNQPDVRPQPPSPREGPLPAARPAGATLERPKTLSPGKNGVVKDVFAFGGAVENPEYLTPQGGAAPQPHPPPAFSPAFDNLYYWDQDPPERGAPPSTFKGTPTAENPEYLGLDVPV
Data set [13] in a line: Antiproliferative activity against human BC assessed as lethality at 10 uM after 48 hrs by SRB assay relative to control. It is filed as functional.
Data set [14] relates to BT-474. Put plainly: Antitumor activity against human BT474 cells xenografted in athymic nude mouse assessed as appearance of tumor fibrosis at 50 mg/kg, po administered via oral gavage for 5 times in a week for 55 days measured post-last dose by H and E staining based immunohistochemical analysis. It is filed as functional, organism-based. The settings on record: time 55.0 day.

Data set [15] deals with T1, Receptor tyrosine-protein kinase erbB-2. Put plainly: Inhibition of wild-type HER2 (unknown origin) at 0.5 nM in presence of substrate incubated for 30 mins by ADP-Glo assay relative to control.
The subject of data set [16] is BT-474. Put plainly: Antitumor activity against human BT474 cells xenografted in athymic nude mouse assessed as tumor growth inhibition at 50 mg/kg, po administered via oral gavage for 5 times in a week for 55 days measured post last dose. It is filed as functional, organism-based. Particulars: time 55.0 day.
Data set [17] relates to T47D. As to the kind of experiment: Antiproliferative activity against human T47D cells assessed as cell growth inhibition after 48 hrs by SRB assay. It is filed as functional. The settings on record: pooled result: one value given for 5 cell lines, strains, targets or settings.
For data set [18], the system named is MCF7. As to the kind of experiment: Antiproliferative activity against human MCF7 cells assessed as lethality at 10 uM after 48 hrs by SRB assay relative to control. It is filed as functional.
For data set [19], the system named is MCF7. As to the kind of experiment: Induction of apoptosis in human MCF7 cells assessed as accumulation in early apoptotic cells at 5 uM incubated for 72 hrs by Annexin V-FITC/PI staining based flow cytometry analysis. It is filed as functional, cell-based.
A short description of data set [20]: in vitro. The settings on record: CD-1, mouse, microsomes.
For data set [21], the system named is BT-474. As to the kind of experiment: Antitumor activity against human BT474 cells xenografted in athymic nude mouse assessed as tumor necrosis at 50 mg/kg, po administered via oral gavage for 5 times in a week for 55 days measured post-last dose by H and E staining based immunohistochemical analysis. Particulars: time 55.0 day. It is filed as functional, organism-based.

Data set [22] concerns MDA-MB-468. As to the kind of experiment: Antiproliferative activity against human MDA-MB-468 cells assessed as lethality at 10 uM after 48 hrs by SRB assay relative to control. It is filed as functional.
Data set [23] can be described thus: Antiproliferative activity against human MDA-MB-231 cells assessed as lethality at 10 uM after 48 hrs by SRB assay relative to control. It is filed as functional, MDA-MB-23.
Data set [24] can be described thus: in vitro. The settings on record: CD-1, mouse, liver microsomes.
Description: Metabolic stability in CD-1 mouse liver microsomes assessed as parent compound remaining at 100 uM measured after 60 mins by LC-MS/MS analysis
Data set [25] in a line: Antiproliferative activity against human BC assessed as cell growth inhibition at 10 uM after 48 hrs by SRB assay relative to control. It is filed as functional. The settings on record: read-out: GI.
Data set [26] has as its system MDA-MB-468. Put plainly: Antiproliferative activity against human MDA-MB-468 cells assessed as cell growth inhibition at 10 uM after 48 hrs by SRB assay relative to control. It is filed as functional. The settings on record: read-out: GI.
The test system of data set [27] is Panel NCI-60 (60 carcinoma cell lines). Put plainly: Antiproliferative activity against human NCI60 cells assessed as lethality at 10 uM after 48 hrs by SRB assay relative to control. It is filed as functional.
For data set [28], the system named is BT-474. Put plainly: Antitumor activity against human BT474 cells xenografted in athymic nude mouse assessed as suppression of tumor growth by measuring decrease in number of Ki67 positive cells at 50 mg/kg, po administered via oral gavage for 5 times per week for 55 days measured post-last dose by Ki67-staining based immunohistochemistry. Particulars: time 55.0 day. It is filed as functional, organism-based.

The nature of data set [29]: in vitro. The settings on record: CD-1, mouse, liver microsomes. This is another data set of the same source.
In data set [30] the test system is AU565. Put plainly: Down regulation of HER2 expression in human AU565 cells at 0.1 IC50 incubated for 24 hrs by western blot analysis. It is filed as functional, cell-based.
Data set [31] is described as follows: in vitro. Particulars: CD-1, mouse, liver microsomes. This is another data set of the same source.
Description: Metabolic stability in CD-1 mouse liver microsomes assessed as parent compound remaining at 100 uM measured after 60 mins in presence of NADPH by LC-MS/MS analysis
The subject of data set [32] is BT-474. Put plainly: Antitumor activity against human BT474 cells xenografted in athymic nude mouse assessed as inflammation in tumors at 50 mg/kg, po administered via oral gavage for 5 times per week for 55 days measured post-last dose by H and E staining based immunohistochemical analysis. It is filed as functional, organism-based. The settings on record: time 55.0 day.

In data set [33] the test system is MCF7. As to the kind of experiment: Induction of apoptosis in human MCF7 cells assessed as accumulation in late apoptotic cells at 5 uM incubated for 72 hrs by Annexin V-FITC/PI staining based flow cytometry analysis. It is filed as functional, cell-based.
Data set [34] is described as follows: in vitro. Particulars: CD-1, mouse, liver microsomes. This is another data set of the same source.
In data set [35] the test system is Panel NCI-60 (60 carcinoma cell lines). Put plainly: Antiproliferative activity against human NCI60 cells assessed as mean cell growth at 10 uM after 48 hrs by SRB assay relative to control. It is filed as functional.
For data set [36], the system named is BT-474. As to the kind of experiment: Antitumor activity against human BT474 cells xenografted in athymic nude mouse assessed as tumor weight at 50 mg/kg, po administered via oral gavage for 5 times in a week for 55 days measured post last dose (reference value: 2.046 g). Particulars: time 55 day. It is filed as functional.
The target of data set [37] is T1, Receptor tyrosine-protein kinase erbB-2. As to the kind of experiment: Inhibition of HER2 (unknown origin) in presence of substrate incubated for 30 mins by ADP-Glo assay.
For data set [38], the system named is MDA-MB-231. Put plainly: Induction of apoptosis in human MDA-MB-231 cells assessed as accumulation in late apoptotic cells at 5 uM incubated for 72 hrs by Annexin V-FITC/PI staining based flow cytometry analysis. It is filed as functional, cell-based.
The subject of data set [39] is MDA-MB-468. Put plainly: Antiproliferative activity against human MDA-MB-468 cells assessed as cell growth inhibition after 48 hrs by SRB assay. It is filed as functional.
Data set [40] deals with BT-474. As to the kind of experiment: Induction of apoptosis in human BT474 cells assessed as increase in early apoptotic cells at 0.2 uM incubated for 72 hrs by Annexin V-FITC/PI staining based flow cytometry analysis relative to control. It is filed as functional.

As to `CN(C)CC(=O)Nc1ccc2ncnc(Nc3ccc(Oc4cccc(F)c4)c(Cl)c3)c2c1`, the Activity entry in data set [1] was “Dose-dependent effect”. Moreover, the IC50 in data set [2] stood at 321 nM; in data set [3], 663 nM; in data set [4], 6560 nM; in data set [9] it was 107 nM. In [5], the “fold change (FC)” value is reported as “<=6”. In addition, the “Ratio IC50” value was 6 in data set [6] and “<=20” in data set [7]. Further, in data set [8], the result was inactive.

Take `CN1CCN(CCCOc2ccc3ncnc(Nc4ccc(OCc5cccc(F)c5)c(Cl)c4)c3c2)CC1`: the result in data set [10], in data set [14], in data set [21], in data set [28], in [30] and in [32] was Active. Besides, the Activity entry in data set [1] was “Dose-dependent effect”; in [13] it was “<=78.7%”; in [18], 11.7%; in [22] it was 11.7%; in data set [23], 11.7%; in [27] it was 1.3%. Also, the Activity is listed as 11.85% in data set [35] and 1.223 g in data set [36]. The result in [11], in data set [19], in [33] and in data set [38] was inactive. In addition, the values for the inhibition in data set [12] and in data set [15] were 91% and 3%, respectively. Also, the IC50 in data set [2] turned out to be 1930 nM; in [3] it was 99 nM; in [4], 737 nM; in data set [37], 8.3 nM; in data set [9], 83 nM. Further, in data set [16], the TGI entry was “Active”. In addition, the 50% growth inhibitory concentration (GI50) in data set [17] amounted to 1370 nM; in [39], 400 nM. Further, the microsomal CLint at 1 h, 100 µM in data set [20] was determined as 24.2 µL/min/mg. The share remaining at 1 h, 100 µM in data set [24] came to 93.5%; in [31], 46.4%. The inhibition of growth at 10 µM in [25] was at most 78.7%; in [26], 18.8%. For the same compound, the “fold change (FC)” value in data set [5] is recorded as “<=6”; in [8], “<=3”. Further, the half-life at 1 h, 100 µM in data set [29] was 57.4 min. The CLint scaled at 1 h, 100 µM in data set [34] was 95.7 mL/min/kg. Also, the “Ratio IC50” value in data set [7] is given as “<=20”.

For the compound `CN1CCN(CC(=O)Nc2ccc3ncnc(Nc4ccc(OCc5cccc(F)c5)c(Cl)c4)c3c2)CC1`, the Activity entry in [1] was “Dose-dependent effect”. In addition, the result in data set [11], in [19], in data set [33] and in [38] was inactive. The inhibition in [15] came to 3%. Besides, the concentration for half-maximal inhibition (IC50) in data set [2] amounted to 1780 nM; in data set [3], 134 nM; in [4], 1360 nM; in [37], 6.1 nM; in data set [9], 133 nM. Moreover, the entries for the “fold change (FC)” value in data set [5], in data set [40] and in [8] were 10, 7 and 2, respectively. In [7], the “Ratio IC50” value is on record as “<=20”.
